Laboratory results from ChEMBL document CHEMBL1201862, “PubChem BioAssay data set” (2004).
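Results reflect a 48-hour exposure of cells in 96-well plates to compound at five concentrations. GI50: concentration for 50% inhibition of growth.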 Activity calls are given as the source filed them. No stated cut-off is given here; in the data, active = GI50 up to about 1.1 µM and inactive = higher.

Tests used:
Test in all cases: inhibition of tumour cell growth, NCI panel, 48 h
786-0 = tested on: 786-0
BT-549 = tested on: BT-549
HL-60 = tested on: HL-60
HOP-92 = tested on: HOP-92
K562 = tested on: K562
KM12 = tested on: KM12
MOLT-4 = tested on: MOLT-4
Malme-3M = tested on: Malme-3M
OVCAR-8 = tested on: OVCAR-8
SK-MEL-2 = tested on: SK-MEL-2
SK-OV-3 = tested on: SK-OV-3
UACC-257 = tested on: UACC-257
UACC-62 = tested on: UACC-62
UO-31 = tested on: UO-31
HCT-116 = tested on: HCT-116
PC-3 = tested on: PC-3
SK-MEL-5 = tested on: SK-MEL-5

Measured: GI50

CCOC(=O)c1c(-c2ccccc2)c(-c2ccccc2)cn1C
inactive: 786-0 > 10 µM | BT-549 > 10 µM | HL-60 > 10 µM | HOP-92 > 10 µM | K562 > 10 µM | KM12 > 10 µM | MOLT-4 > 10 µM | Malme-3M > 10 µM | OVCAR-8 > 10 µM | SK-MEL-2 8.15 µM | SK-OV-3 > 10 µM | UACC-257 > 10 µM | UACC-62 > 10 µM | UO-31 > 10 µM

Cc1cccc(NC(=O)/C=C/c2ccccc2)c1C
inactive: 786-0 > 100 µM | BT-549 > 100 µM | HCT-116 > 100 µM | HL-60 > 100 µM | K562 > 100 µM | KM12 > 100 µM | MOLT-4 > 100 µM | Malme-3M > 100 µM | OVCAR-8 > 100 µM | PC-3 > 100 µM | SK-MEL-2 > 100 µM | SK-MEL-5 > 100 µM | SK-OV-3 > 100 µM | UACC-257 > 100 µM | UACC-62 > 100 µM

COc1cc(/C=C2/SC(c3ccccc3)N(c3cccc(Cl)c3)C2=O)cc(OC)c1OC (centres undefined)
inactive: 786-0 16.8 µM | BT-549 24.1 µM | HCT-116 15.3 µM | HL-60 29.8 µM | HOP-92 23.6 µM | K562 13.5 µM | KM12 32.4 µM | MOLT-4 24.7 µM | Malme-3M 24.6 µM | OVCAR-8 23.1 µM | SK-MEL-2 59.3 µM | SK-MEL-5 29.5 µM | SK-OV-3 20.9 µM | UACC-257 40.1 µM | UACC-62 18.4 µM | UO-31 24.8 µM

CC(C(=O)O)c1ccc(-n2nnc3c(=O)[nH][nH]c(=O)c32)cc1 (centres undefined)
inactive: BT-549 > 100 µM | HCT-116 > 100 µM | HL-60 > 100 µM | K562 > 100 µM | KM12 > 100 µM | MOLT-4 > 100 µM | Malme-3M > 100 µM | OVCAR-8 > 100 µM | PC-3 > 100 µM | SK-MEL-2 > 100 µM | SK-MEL-5 > 100 µM | UACC-257 > 100 µM | UO-31 > 100 µM

CCOC(=O)c1c(SCc2ccccc2)nc2c3ccccc3ccn12
inactive: 786-0 > 100 µM | HCT-116 > 100 µM | HL-60 > 100 µM | HOP-92 1.72 µM | K562 > 100 µM | KM12 > 100 µM | MOLT-4 > 100 µM | Malme-3M 63.7 µM | OVCAR-8 83.6 µM | PC-3 > 100 µM | SK-MEL-2 > 100 µM | SK-MEL-5 > 100 µM | SK-OV-3 52.7 µM | UACC-257 > 100 µM | UACC-62 > 100 µM

Oc1cc(-c2ccc(F)cc2)nc2ncccc12
inactive: BT-549 > 100 µM | HOP-92 45.3 µM | K562 22.2 µM | KM12 31.9 µM | MOLT-4 52.7 µM | Malme-3M 65.6 µM | OVCAR-8 77.8 µM | SK-MEL-2 33.5 µM | SK-OV-3 30.3 µM | UACC-257 30.5 µM | UACC-62 33.8 µM | UO-31 34.4 µM

OC(c1nc2ccccc2s1)(C(F)(F)F)C(F)(F)F
inactive: 786-0 > 100 µM | HCT-116 > 100 µM | HL-60 > 100 µM | K562 > 100 µM | KM12 > 100 µM | MOLT-4 > 100 µM | Malme-3M > 100 µM | OVCAR-8 > 100 µM | PC-3 > 100 µM | SK-MEL-2 > 100 µM | SK-MEL-5 > 100 µM | SK-OV-3 > 100 µM | UACC-257 > 100 µM | UACC-62 > 100 µM | UO-31 87.1 µM

CN(CC(=O)O)c1ncc2c(n1)-c1ccccc1SC2
inactive: 786-0 > 100 µM | HCT-116 > 100 µM | HL-60 > 100 µM | HOP-92 > 100 µM | KM12 > 100 µM | MOLT-4 > 100 µM | Malme-3M 50.1 µM | OVCAR-8 > 100 µM | PC-3 > 100 µM | SK-MEL-2 > 100 µM | SK-MEL-5 > 100 µM | UACC-257 > 100 µM | UACC-62 > 100 µM | UO-31 > 100 µM

C1CSCC2(COC2)CS1
inactive: HCT-116 > 100 µM | HOP-92 > 100 µM | K562 > 100 µM | KM12 > 100 µM | MOLT-4 > 100 µM | OVCAR-8 > 100 µM | PC-3 > 100 µM | SK-MEL-5 > 100 µM | SK-OV-3 > 100 µM | UACC-257 > 100 µM | UO-31 > 100 µM

CN1N=C(c2ccncc2)OC1c1ccc(C(F)(F)F)cc1 (centres undefined)
inactive: 786-0 98.4 µM | HCT-116 > 100 µM | HL-60 > 100 µM | K562 > 100 µM | KM12 > 100 µM | MOLT-4 > 100 µM | OVCAR-8 > 100 µM | PC-3 > 100 µM | SK-MEL-2 > 100 µM | SK-MEL-5 > 100 µM | SK-OV-3 > 100 µM | UACC-257 > 100 µM | UACC-62 > 100 µM | UO-31 > 100 µM

C=C1C(O)CC[C@]2(C)C1C1OC(C)(C)O[C@]13CC(=O)C(C)=C([C@H]1OC(C)(C)OC12)C3(C)C (some centres undefined)
inactive: 786-0 > 100 µM | BT-549 > 100 µM | HCT-116 > 100 µM | HL-60 > 100 µM | K562 90.2 µM | KM12 > 100 µM | MOLT-4 58.6 µM | Malme-3M > 100 µM | OVCAR-8 > 100 µM | SK-MEL-5 > 100 µM | SK-OV-3 > 100 µM | UACC-257 > 100 µM | UACC-62 > 100 µM | UO-31 > 100 µM

CCCOP(=O)(OCCC)OC(C(F)(F)F)C(F)(F)F
inactive: BT-549 > 100 µM | HCT-116 > 100 µM | HL-60 > 100 µM | K562 > 100 µM | KM12 > 100 µM | MOLT-4 > 100 µM | Malme-3M > 100 µM | SK-MEL-2 > 100 µM | SK-OV-3 > 100 µM | UACC-257 > 100 µM | UACC-62 > 100 µM | UO-31 > 100 µM

CCCCn1c(-c2ccc([N+](=O)[O-])cc2)cs/c1=N/N=C1\C(=O)Nc2ccc(Br)cc21
inactive: 786-0 11.8 µM | BT-549 22.6 µM | HCT-116 12.9 µM | HL-60 16.9 µM | HOP-92 26 µM | K562 15.7 µM | KM12 14.6 µM | MOLT-4 7.43 µM | Malme-3M 28.3 µM | OVCAR-8 30 µM | SK-MEL-5 14.1 µM | SK-OV-3 19.5 µM | UACC-257 18.2 µM | UACC-62 19.6 µM | UO-31 18.6 µM

CCC1(O)CC(CCN(Cc2ccccc2)C(=O)OCc2ccccc2)C(OCc2ccccc2)C1O (centres undefined)
inactive: 786-0 17.2 µM | BT-549 13 µM | HCT-116 17.5 µM | K562 4.69 µM | KM12 12.7 µM | MOLT-4 1.93 µM | OVCAR-8 15.6 µM | PC-3 10.7 µM | SK-MEL-2 14.4 µM | SK-MEL-5 15.1 µM | SK-OV-3 17.4 µM | UACC-257 16.1 µM | UACC-62 12.9 µM | UO-31 16.2 µM
